Data set [1] concerns the target T1, recombinant human Meningioma Expressed Antigen 5 (MGEA5), also referred to as O-GlcNAcase (OGA) (Homo sapiens, UniProt O60502).
T1 construct: Full length OGA enzyme was purchased at OriGene (cat #TP322411); purchased OriGene TP322411
T1 sequence (O60502 1-916): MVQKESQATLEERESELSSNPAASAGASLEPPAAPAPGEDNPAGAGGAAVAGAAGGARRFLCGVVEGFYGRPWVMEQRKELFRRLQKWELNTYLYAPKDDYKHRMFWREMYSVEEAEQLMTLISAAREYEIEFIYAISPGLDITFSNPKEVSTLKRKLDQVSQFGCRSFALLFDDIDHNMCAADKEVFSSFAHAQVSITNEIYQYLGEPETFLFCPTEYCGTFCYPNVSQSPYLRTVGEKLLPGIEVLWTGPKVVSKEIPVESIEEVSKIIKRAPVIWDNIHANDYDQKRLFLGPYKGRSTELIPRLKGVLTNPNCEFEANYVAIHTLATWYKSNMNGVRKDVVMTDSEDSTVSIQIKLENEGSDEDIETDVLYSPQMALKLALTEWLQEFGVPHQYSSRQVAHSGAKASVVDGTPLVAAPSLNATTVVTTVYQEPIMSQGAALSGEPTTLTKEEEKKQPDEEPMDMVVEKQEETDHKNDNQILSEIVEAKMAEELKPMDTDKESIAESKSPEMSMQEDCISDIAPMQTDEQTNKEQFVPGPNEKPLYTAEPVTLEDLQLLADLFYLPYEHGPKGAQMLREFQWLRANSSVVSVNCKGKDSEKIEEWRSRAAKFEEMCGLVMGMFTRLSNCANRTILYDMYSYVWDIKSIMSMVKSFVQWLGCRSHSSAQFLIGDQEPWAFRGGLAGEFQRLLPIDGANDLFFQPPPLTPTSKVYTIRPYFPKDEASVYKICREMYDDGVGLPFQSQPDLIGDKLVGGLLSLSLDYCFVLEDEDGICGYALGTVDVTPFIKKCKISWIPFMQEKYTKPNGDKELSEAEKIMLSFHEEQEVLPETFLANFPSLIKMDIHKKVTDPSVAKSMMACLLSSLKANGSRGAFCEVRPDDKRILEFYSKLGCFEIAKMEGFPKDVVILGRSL
Kind of data set: OGA biochemical assay (inhibition of FM-GlcNAc hydrolysis, fluorescence). The note with it: for IC50: Enzymatic hOGA; for Emax: read-out: Enzymatic Emax (%). As for the experimental part: The hydrolysis FM-GlcNAc (Marker Gene technologies, cat #M1485) results in the formation of β-D-N-glucosamineacetate and fluorescein. The fluorescence of the latter can be measured at excitation wavelength 485 nm and emission wavelength 538 nm. An increase in enzyme activity results in an increase in fluorescence signal. Full length OGA enzyme was purchased at OriGene (cat #TP322411). The enzyme was stored in 25 mM Tris.HCl, pH 7.3, 100 mM glycine, 10% glycerol at −20° C. […] The assay was performed in 200 mM Citrate/phosphate buffer supplemented with 0.005% Tween-20. 35.6 g Na2HIPO42H2O (Sigma, #C0759) were dissolved in 1 L water to obtain a 200 mM solution. […] The buffer to stop the reaction consists of a 500 mM Carbonate buffer, pH 11.0. […] OGA was used at a 2 nM concentration and FM-GlcNAc at a 100 uM final concentration. Dilutions were prepared in assay buffer.
Plates were pre-incubated for 60 min at room temperature and then 2 μl FM-GlcNAc substrate mix added. […] Plates were briefly centrifuged for 1 min at 1000 rpm and incubate at room temperature for 6 h. To stop the reaction 5 μl STOP buffer were added and plates centrifuge again 1 min at 1000 rpm. Fluorescence was quantified in the Thermo Scientific Fluoroskan Ascent or the PerkinElmer EnVision with excitation wavelength 485 nm and emission wavelength 538 nm.
For analysis a best-fit curve is fitted by a minimum sum of squares method. From this an IC50 value and Hill coefficient was obtained. High control (no inhibitor) and low control (saturating concentrations of standard inhibitor) were used to define the minimum and maximum values.

In a further data set the target is T2, hOGA (Homo sapiens, UniProt O60502).
T2 construct: endogenous in cells; host or cells: HEK293 cells inducible for P301L mutant human Tau (isoform 2N4R)
T2 sequence (O60502 1-916): T1 sequence (O60502 1-916)
Kind of data set: OGA cellular assay (ICC detection of O-GlcNAcylated proteins in HEK293 cells inducible for P301L mutant human Tau). The class given is cell-based. Further details: Emax: dose or concentration left out as unconfirmed. The settings on record: for EC50: Cellular hOGA; for Emax: HEK293, read-out: Cellular Emax (%). As for the experimental part:
HEK293 cells inducible for P301L mutant human Tau (isoform 2N4R) were established at Janssen. Thiamet-G was used for both plate validation (high control) and as reference compound (reference EC50 assay validation). OGA inhibition is evaluated through the immunocytochemical (ICC) detection of O-GlcNAcylated proteins by the use of a monoclonal antibody (CTD110.6; Cell Signaling, #9875) detecting O-GlcNAcylated residues as previously described (Dorfmueller et al. 2010 Chemistry & biology, 17:1250). Inhibition of OGA will result in an increase of O-GlcNAcylated protein levels resulting in an increased signal in the experiment. Cell nuclei are stained with Hoechst to give a cell culture quality control and a rough estimate of immediate compounds toxicity, if any. ICC pictures are imaged with a Perkin Elmer Opera Phenix plate microscope and quantified with the provided software Perkin Elmer Harmony 4.1.
Cells were propagated in DMEM high Glucose (Sigma, #D5796) following standard procedures. 2 days before the cell assay cells are split, counted and seeded in Poly-D-Lysine (PDL) coated 96-wells (Greiner, #655946) plate at a cell density of 12,000 cells per cm^2 (4,000 cells per well) in 100 μl of Assay Medium (Low Glucose medium is used to reduce basal levels of GlcNAcylation) (Park et al. 2014 The Journal of biological chemistry 289:13519). At the day of compound test medium from assay plates was removed and replenished with 90 μl of fresh Assay Medium. 10 μl of compounds at a 10 fold final concentration were added to the wells. Plates were centrifuged shortly before incubation in the cell incubator for 6 hours. DMSO concentration was set to 0.2%. Medium is discarded by applying vacuum. For staining of cells medium was removed and cells washed once with 100 μl D-PBS (Sigma, #D8537). From next step onwards unless other stated assay volume was always 50 μl and incubation was performed without agitation and at room temperature. Cells were fixed in 50 μl of a 4% paraformaldehyde (PFA, Alpha aesar, #043368) PBS solution for 15 minutes at room temperature. […] Before analysis samples were washed 2 times manually for 5 minutes in ICC base buffer.
Imaging is performed using Perkin Elmer Phenix Opera using a water 20× objective and recording 9 fields per well. Intensity readout at 488 nm is used as a measure of O-GlcNAcylation level of total proteins in wells. To assess potential toxicity of compounds nuclei were counted using the Hoechst staining. IC50-values are calculated using parametric non-linear regression model fitting. As a maximum inhibition Thiamet Gat a 200 uM concentration is present on each plate. In addition, a concentration response of Thiamet G is calculated on each plate.

The mark [2] stands for this setting: pIC50, Table 5, full length OGA 2 nM, FM-GlcNAc 100 uM, 6 h at room temperature.
The mark [3] stands for this setting: pEC50, Table 5, HEK293 P301L Tau cells, 6 hours incubation, O-GlcNAcylation readout.
[4] abbreviates: Table 5, full length OGA 2 nM, FM-GlcNAc 100 uM, 6 h at room temperature.
The mark [5] stands for this setting: Table 5, HEK293 P301L Tau cells, 6 hours incubation, O-GlcNAcylation readout.
Setting [6] is: second table, averaged values over several runs, obtained after recalibration of the equipment.

As a reminder, the IC50 is the concentration that gives 50% inhibition. For orientation: Emax means the greatest response seen or fitted, relative to the assay's reference. As a reminder, the EC50 is the concentration needed to bring the measured effect to its halfway point. What is called melting point is the temperature of the solid-liquid transition. In turn, `Cc1nn(-c2ccc(F)cn2)c(C)c1Nc1nccc2c1ncn2CC(=O)N(C)C` [Compound 32] returned a melting point of 256.6 °C. The IC50 in data set [1] (setting [2]) was 174 nM. Moreover, the Emax in data set [1] amounted to 100%. On hOGA (setting [3]), this molecule came in with an EC50 of more than 1000 nM. In addition, the maximal response (Emax) on hOGA was 34%.
On to `Cc1cc(C(F)(F)F)cc(C)c1Nc1ncc(C2CC2)c2c1ncn2CC(=O)N(C)C` [Compound 75], for which the melting point came to 246.7 °C. Moreover, the “Enzymatic hOGA; pIC50” value in data set [1] (setting [4]) is reported as 6.28. Besides, in data set [1], the Emax was 97%. Besides, the Emax at hOGA is 22%. Also, at hOGA (setting [5]), the “Cellular hOGA; pEC50” value is reported as less than 6.
The molecule `Cc1cc(C(F)(F)F)cc(C)c1Nc1ncc(Cl)c2c1ncn2CC(=O)N(C)C` [Compound 62, 2-[7-Chloro-4-[2,6-dimethyl-4-(trifluoromethyl)anilino]imidazo[4,5-c]pyridin-1-yl]-N,N-dimethyl-acetamide] showed a melting point of 239.9 °C. For the same molecule, in data set [1] (setting [2]), the IC50 was 692 nM. In addition, the Emax in data set [1] was determined as 91%. Also, the EC50 at hOGA (setting [3]) is more than 1000 nM. Besides, the Emax at hOGA was 13%.
`Cc1c(-c2cccc(F)c2)nn(C)c1Nc1nccc2c1ncn2CC(=O)N(C)C` [Compound 40] registered a melting point of 230 °C. Also, the IC50 in data set [1] (setting [2]) was 105 nM. Also, the Emax in data set [1] came out at 102%. In addition, the EC50 on hOGA (setting [3]) was more than 1000 nM. Further, on hOGA, the Emax worked out at 27%.
Molecule `CC(C)c1cc(F)cc(Cl)c1Nc1nccc2c1ncn2CC(=O)N(C)C` [Compound 47] gave a melting point of 251.8 °C. In addition, in data set [1] (setting [2]), the IC50 is 13.5 nM. The Emax in data set [1] came to 97%. In addition, the response on hOGA (setting [3]) was half-maximal at 67.6 nM (EC50). The Emax on hOGA amounted to 110%.
Molecule `CNC(=O)Cn1cnc2c(Nc3c(C)cc(C(F)(F)F)cc3C)nccc21` [Compound 4, 2-(4-((2,6-Dimethyl-4-(trifluoromethyl)phenyl)amino)-1H-imidazo[4,5-c]pyridin-1-yl)-N-methylacetamide] yielded a melting point of 275.1 °C. In data set [1] (setting [2]), the 50% inhibitory concentration (IC50) is 3.39 nM. In addition, the Emax in data set [1] was found to be 98%. At hOGA (setting [3]), this molecule had an EC50 of 55 nM. Also, the maximal response (Emax) at hOGA came out at 101%.
Turning to `COc1cccc(-n2nc(C)c(Nc3nccc4c3ncn4CC(=O)N(C)C)c2C)c1` [Compound 36], the melting point worked out at 179.7 °C. For the same molecule, the IC50 in data set [1] (setting [2]) is 29.5 nM. Also, in data set [1], the Emax came out at 101%. The same molecule showed an EC50 on hOGA (setting [3]) of 603 nM. Further, the Emax on hOGA was 55%.
`Cc1ccnc(C(C)C)c1Nc1nccc2c1cnn2CC(=O)N(C)C` [Compound 65, 2-[4-[(2-Isopropyl-4-methyl-3-pyridyl)amino]pyrazolo[4,3-c]pyridin-1-yl]-N,N-dimethyl-acetamide] returned a melting point of 211.5 °C. The IC50 in data set [1] (setting [2]) was 174 nM. In data set [1], the maximal response (Emax) was 97%. The EC50 at hOGA (setting [3]) is more than 1000 nM. For the same molecule, the Emax on hOGA was determined as 24%.
`Cc1cc(C(F)(F)F)cc(C)c1Nc1nccc2c1ncn2C1CCCCO1` (stereo not shown) [Compound 73] showed a melting point of 169.8 °C. The “Enzymatic hOGA; pIC50” value in data set [1] (setting [4]) turned out to be 6.77. The Emax in data set [1] came to 100%. Further, the “Enzymatic hOGA; pIC50” value in data set [1] (setting [6]) is reported as 6.91. In addition, the Emax on hOGA was 42%. Moreover, the “Cellular hOGA; pEC50” value at hOGA (setting [5]) was less than 6. The “Cellular hOGA; pEC50” value at hOGA (setting [6]) came to 6.42.
Turning to `Cc1cc2c(cnn2C)c(C)c1Nc1nccc2c1ncn2CC(=O)N(C)C` [Compound 13], the melting point was found to be 265.1 °C. The concentration for half-maximal inhibition (IC50) in data set [1] (setting [2]) was 13.8 nM. In addition, in data set [1], the Emax came out at 98%. This molecule also had an EC50 on hOGA (setting [3]) of 69.2 nM. Besides, at hOGA, the maximal response (Emax) is 113%.
Take `CCN(C)C(=O)Cn1cnc2c(Nc3c(C)cc(C(F)(F)F)cc3C)nccc21` [Compound 63, 2-[4-[2,6-Dimethyl-4-(trifluoromethyl)anilino]imidazo[4,5-c]pyridin-1-yl]-N-ethyl-N-methyl-acetamide]: the melting point was 186.5 °C. Further, the IC50 in data set [1] (setting [2]) is 9.33 nM. Moreover, the Emax in data set [1] turned out to be 98%. On hOGA (setting [3]), this molecule showed an EC50 of 89.1 nM. Also, at hOGA, the Emax was 100%.
Take `Cc1cc(F)cc(F)c1Nc1nccc2c1ncn2CC(C)(F)F` [Compound 3]: the melting point amounted to 174.99 °C. Moreover, the IC50 in data set [1] (setting [2]) was 25.7 nM. Moreover, the Emax in data set [1] was 101%. On hOGA (setting [3]), this molecule showed an EC50 of 741 nM. Also, the Emax on hOGA was 57%.
`Cc1cc(C#N)cc(C)c1Nc1nccc2c1ncn2CC(=O)N(C)C` [Compound 46] displayed a melting point of 263.4 °C. The IC50 in data set [1] (setting [2]) is 13.5 nM. Moreover, in data set [1], the Emax was found to be 92%. This molecule showed a half-maximal effective concentration (EC50) at hOGA (setting [3]) of 468 nM. In addition, the Emax on hOGA was found to be 69%.
In turn, `Cc1cc(F)c(F)c(C)c1Nc1nccc2c1ncn2CC(=O)N1CCC1` [Compound 79] displayed a melting point of 214.8 °C. Also, in data set [1] (pIC50, second table, averaged values over several runs, obtained after recalibration of the equipment), the IC50 was 251 nM. Moreover, on hOGA (pEC50, second table, averaged values over several runs, obtained after recalibration of the equipment), the EC50 was more than 1000 nM.

Source of the values: patent publication US20230099293A1, “OGA INHIBITOR COMPOUNDS” (priority 2019, published 2023).
